Source: patent publication US12030904B2 (priority 2020, dated 2024)
Like-named read-outs stand apart in the source and are kept apart here.

Columns and labels:
[1] = tested on: Recombinant Respiratory Syncytial virus strain A2 containing the firefly luciferase reporter (RSV-Fluc); assay: microbe, parasite or virus in culture; type: cell-based; conditions: human respiratory syncytial virus, NHBE
SARS-CoV-2 = assay: microbe, parasite or virus in culture; type: cell-based
[2] = A549 cytotoxicity analysis (CellTiter-Glo); type: cell-based; conditions: human, A549 cells
Method: The cytotoxicity of compounds was determined in A549 cells in the following manner. Compounds (40 nL) were spotted onto 384-well Grenier plates prior to seeding 5000 A549 cells/well in a volume of 40 μL culture medium. The plates were incubated at 37° C. for 48 hours with 5% CO2. On day 2, 40 μL of CellTiter-Glo (Promega) was added and mixed 5 times. Plates were read for luminescence on an Envision (PerkinElmer) and the CC50 (compound concentration for reducing 50% of luminescence signal as a measure of cell viability) were calculated using a nonlinear regression model (four parameters). Two experiments were performed with technical duplicates.

MT4 cytotoxicity (CC50) = conditions: human, MT4 cells
[3] = 72 h, read-out: RSV-Fluc EC50 (NHBE), NHBE cells, three days, Table 1
[4] = Severe acute respiratory syndrome coronavirus 2, 48 h, read-out: SARS-CoV-2 EC50
[5] = 72 h, read-out: RSV-Fluc EC50 (NHBE), NHBE cells, three days, Table 2
[6] = Severe acute respiratory syndrome coronavirus 2, read-out: SARS EC50

CCCCCCCCCCCCCCCCCCOC[C@H](COP(=O)(O)OC[C@H]1O[C@@](C#N)(c2ccc3c(N)ncnn23)[C@H](O)[C@@H]1O)OCc1ccc2ccccc2c1 [Example 4, ((2R,3S,4R,5R)-5-(4-aminopyrrolo[2,1-f][1,2,4]triazin-7-yl)-5-cyano-3,4-dihydroxytetrahydrofuran-2-yl)methyl ((R)-2-(naphthalen-2-ylmethoxy)-3-(octadecyloxy)propyl) hydrogen phosphate]
EC50 [1, 3]: 60 nM | EC50 (SARS-CoV-2; [4]): 340 nM | CC50 at 48 h ([2]; 48 hours, Table 1): 17000 nM | CC50 (MT4 cytotoxicity (CC50); MT4 CC50, Table 1a): 4170 nM

CCCCCCCCCCCCCCCCCCOC[C@H](COP(=O)(O)OC[C@H]1O[C@@](C#N)(c2ccc3c(N)ncnn23)[C@H](O)[C@@H]1O)OCc1ccc(-c2ccccc2)cc1 [Example 2, (R)-2-([1,1′-biphenyl]-4-ylmethoxy)-3-(octadecyloxy)propyl (((2R,3S,4R,5R)-5-(4-aminopyrrolo[2,1-f][1,2,4]triazin-7-yl)-5-cyano-3,4-dihydroxytetrahydrofuran-2-yl)methyl) hydrogen phosphate]
EC50 [1, 3]: 350 nM | EC50 (SARS-CoV-2; [4]): 430 nM | CC50 at 48 h ([2]; 48 hours, Table 1): > 50000 nM | CC50 (MT4 cytotoxicity (CC50); MT4 CC50, Table 1a): 14700 nM

CCCCCCCCCCCCCCCCCCCOC[C@H](COP(=O)(O)OC[C@H]1O[C@@](C#N)(c2ccc3c(N)ncnn23)[C@H](O)[C@@H]1O)OCc1cc(F)cc(C#N)c1 [Example 70, ((2R,3S,4R,5R)-5-(4-aminopyrrolo[2,1-f][1,2,4]triazin-7-yl)-5-cyano-3,4-dihydroxytetrahydrofuran-2-yl)methyl ((R)-2-((3-cyano-5-fluorobenzyl)oxy)-3-(nonadecyloxy)propyl) hydrogen phosphate]
EC50 [1, 5]: 60 nM | EC50 ([1]; read-out: RSV EC50, Table 2a): 66 nM | CC50 at 48 h ([2]; Table 3): 1100 nM | CC50 (MT4 cytotoxicity (CC50); MT4 CC50, Table 2a): 854 nM

CCCCCCCCCCCCCCCCCCOC[C@H](COP(=O)(O)OC[C@H]1O[C@@](C#N)(c2ccc3c(N)ncnn23)[C@H](O)[C@@H]1O)OCc1ccc(F)c(F)c1 [Example 14, ((2R,3S,4R,5R)-5-(4-aminopyrrolo[2,1-f][1,2,4]triazin-7-yl)-5-cyano-3,4-dihydroxytetrahydrofuran-2-yl)methyl ((R)-2-((3,4-difluorobenzyl)oxy)-3-(octadecyloxy)propyl) hydrogen phosphate]
EC50 [1, 3]: 90 nM | EC50 (SARS-CoV-2; [4]): 320 nM | CC50 at 48 h ([2]; 48 hours, Table 1): 13000 nM | CC50 (MT4 cytotoxicity (CC50); MT4 CC50, Table 1a): 7190 nM

CCCCCCCCCCCCCCCCCCOC[C@H](COP(=O)(O)OC[C@H]1O[C@@](C#N)(c2ccc3c(N)ncnn23)[C@H](O)[C@@H]1O)OCc1ccc(OC)cc1 [Example 10, ((2R,3S,4R,5R)-5-(4-aminopyrrolo[2,1-f][1,2,4]triazin-7-yl)-5-cyano-3,4-dihydroxytetrahydrofuran-2-yl)methyl ((R)-2-((4-methoxybenzyl)oxy)-3-(octadecyloxy)propyl) hydrogen phosphate]
EC50 [1, 3]: 60 nM | EC50 (SARS-CoV-2; [4]): 300 nM | CC50 at 48 h ([2]; 48 hours, Table 1): 20000 nM | CC50 (MT4 cytotoxicity (CC50); MT4 CC50, Table 1a): 3430 nM

CCCCCCCCCCCCCCCCCCOC[C@H](COP(=O)(O)OC[C@H]1O[C@@](C#N)(c2ccc3c(N)ncnn23)[C@H](OC(=O)C(C)C)[C@@H]1OC(=O)C(C)C)OCc1ccccc1 [Example 13, (2R,3R,4R,5R)-2-(4-aminopyrrolo[2,1-f][1,2,4]triazin-7-yl)-5-(((((R)-2-(benzyloxy)-3-(octadecyloxy)propoxy)(hydroxy)phosphoryl)oxy)methyl)-2-cyanotetrahydrofuran-3,4-diyl bis(2-methylpropanoate)]
EC50 [1, 3]: 2200 nM | EC50 (SARS-CoV-2; [4]): > 10000 nM | CC50 at 48 h ([2]; 48 hours, Table 1): 15000 nM | CC50 (MT4 cytotoxicity (CC50); MT4 CC50, Table 1a): 32800 nM

CCCCCCCCCCCCCCCCCCOC[C@@H](COP(=O)(O)OC[C@H]1O[C@@](C#N)(c2ccc3c(N)ncnn23)[C@H](O)[C@@H]1O)OCc1ccccc1 [Example 18, ((2R,3S,4R,5R)-5-(4-aminopyrrolo[2,1-f][1,2,4]triazin-7-yl)-5-cyano-3,4-dihydroxytetrahydrofuran-2-yl)methyl ((S)-2-(benzyloxy)-3-(octadecyloxy)propyl) hydrogen phosphate]
EC50 [1, 3]: 110 nM | EC50 (SARS-CoV-2; [4]): 320 nM | CC50 at 48 h ([2]; 48 hours, Table 1): > 50000 nM

CCCCCCCCCCCCCCCCCOC[C@H](COP(=O)(O)OC[C@H]1O[C@@](C#N)(c2ccc3c(N)ncnn23)[C@H](O)[C@@H]1O)OCc1ccc(OC)cc1 [Example 37, ((2R,3S,4R,5R)-5-(4-aminopyrrolo[2,1-f][1,2,4]triazin-7-yl)-5-cyano-3,4-dihydroxytetrahydrofuran-2-yl)methyl ((R)-3-(heptadecyloxy)-2-((4-methoxybenzyl)oxy)propyl) hydrogen phosphate]
EC50 ([1]; read-out: RSV EC50, Table 2a): 39 nM | EC50 (SARS-CoV-2; [6]): 371 nM | CC50 (MT4 cytotoxicity (CC50); MT4 CC50, Table 2a): 1580 nM

CCCCCCCCCCCCCCCCCCOC[C@H](COP(=O)(O)OC[C@H]1O[C@@](C#N)(c2ccc3c(N)ncnn23)[C@H](O)[C@@H]1O)OCc1ccc(C#N)c(OC)c1 [Example 54, ((2R,3S,4R,5R)-5-(4-Aminopyrrolo[2,1-f][1,2,4]triazin-7-yl)-5-cyano-3,4-dihydroxytetrahydrofuran-2-yl)methyl ((R)-2-((4-cyano-3-methoxybenzyl)oxy)-3-(octadecyloxy)propyl) hydrogen phosphate]
EC50 ([1]; read-out: RSV EC50, Table 2a): 19 nM | EC50 (SARS-CoV-2; [6]): 1630 nM | CC50 (MT4 cytotoxicity (CC50); MT4 CC50, Table 2a): 289 nM

CCCCCCCCCCCCCCCCCCOC[C@H](COP(=O)(O)OC[C@H]1O[C@@](C#N)(c2ccc3c(N)ncnn23)[C@H](O)[C@@H]1O)OC(C)c1ccccc1 (single isomer, unassigned) [Example 27]
EC50 [1, 5]: 110 nM | EC50 ([1]; read-out: RSV EC50, Table 2a): 113 nM | EC50 (SARS-CoV-2; [6]): 2000 nM | CC50 (MT4 cytotoxicity (CC50); MT4 CC50, Table 2a): 614 nM

CCCCCCCCCCCCCCOC[C@H](COP(=O)(O)OC[C@H]1O[C@@](C#N)(c2ccc3c(N)ncnn23)[C@H](O)[C@@H]1O)OCc1cc(F)cc(C#N)c1 [Example 117, [(2R,3S,4R,5R)-5-(4-aminopyrrolo[2,1-f][1,2,4]triazin-7-yl)-5-cyano-3,4-dihydroxy-tetrahydrofuran-2-yl]methyl [(2R)-2-[(3-cyano-5-fluoro-phenyl)methoxy]-3-tetradecoxy-propyl] hydrogen phosphate]
EC50 ([1]; read-out: RSV EC50, Table 4): 15 nM | EC50 (SARS-CoV-2; [6]): 200 nM | CC50 (MT4 cytotoxicity (CC50); MT4 CC50, Table 4): 473 nM

CCCCCCCCCCCCCCCCCCOC[C@H](COP(=O)(O)OC[C@H]1O[C@@](C#N)(c2ccc3c(N)ncnn23)[C@H](O)[C@@H]1O)OCc1ccc(C#N)c(F)c1 [Example 67, ((2R,3S,4R,5R)-5-(4-aminopyrrolo[2,1-f][1,2,4]triazin-7-yl)-5-cyano-3,4-dihydroxytetrahydrofuran-2-yl)methyl ((R)-2-((4-cyano-3-fluorobenzyl)oxy)-3-(octadecyloxy)propyl) hydrogen phosphate]
EC50 [1, 5]: 7.6 nM | EC50 ([1]; read-out: RSV EC50, Table 2a): 19 nM | EC50 (SARS-CoV-2; [6]): 229 nM | CC50 (MT4 cytotoxicity (CC50); MT4 CC50, Table 2a): 744 nM

CCCCCCCCCCCCCCCOC[C@H](COP(=O)(O)OC[C@H]1O[C@@](C#N)(c2ccc3c(N)ncnn23)[C@H](O)[C@@H]1O)OCc1cc(F)cc(C#N)c1 [Example 118, [(2R,3S,4R,5R)-5-(4-Aminopyrrolo[2,1-f][1,2,4]triazin-7-yl)-5-cyano-3,4-dihydroxy-tetrahydrofuran-2-yl]methyl [(2R)-2-[(3-cyano-5-fluoro-phenyl)methoxy]-3-pentadecoxy-propyl] hydrogen phosphate]
EC50 ([1]; read-out: RSV EC50, Table 4): 37 nM | EC50 (SARS-CoV-2; [6]): 120 nM | CC50 (MT4 cytotoxicity (CC50); MT4 CC50, Table 4): 291 nM
